Results from article PMC10419174, “WR1065 conjugated to thiol-PEG polymers as novel anticancer prodrugs: broad spectrum efficacy, synergism, and drug resistance reversal” (Frontiers in Oncology, 2023).
Several values for one entry are separate records, joined by “and”; a condition that tells them apart may be missing. Equal entries are not always repeated. Where two headings read alike, the source gives them in different places. Marks after values point to notes of the source that are not given here.

Assays:
NCI-H460 NSCLC cells = conditions: for Fold increase in efficacy: drug alone ÷ drug in 4SP65-DDP combination
Description: To test anticancer effectiveness of individual drugs or drug combinations, the CyQUANT®-NF proliferation assay was used with a plate reader (i) to generate standard curves for cell numbers for each cell line, (ii) to measure the starting cell numbers at initiation of drug treatment, and (iii) to obtain fluorescence readings from cells in 96-well plates for comparisons to a standard curve for the relevant cancer cell line and quantifying cell viability after drug treatments. […] Trypan blue exclusion was used to estimate cell numbers in a few pilot experiments and thereafter was applied to confirm very low viable cell numbers and cell death.
A series of experiments was conducted to determine the relative efficacy of 4SP65, 1LP65, and amifostine as single agents in the same human cancer cell lines.
Five metrics were calculated and used to characterize the shape of the dose-response curve following exposure to a single test agent. Using cell numbers based on fluorescence measurements and standard curves, the percentage growth was calculated at each drug concentration level. The percentage of growth inhibition was calculated as follows:
where Tz = cell numbers or fluorescence counts at time xero, C = vehicle-exposed control cell numbers at the end of the assessment time period, and Ti = test agent-exposed cell numbers or fluorescence counts at each drug concentration. […] The LC50/99 was calculated using Equation 2 = -50 and Eq. 2 = -99, respectively. […] For NHMECs, the relationships between drug exposure levels and fluorescence units were used to define dose-response metrics. The selectivity index values for individual drugs were calculated using IC50 levels in NHMECs divided by the IC50 value for each cancer cell line. Statistical comparisons of differences in individual dose-response metrics between drug treatments and cell lines were conducted using Student’s t-test, with P-values <0.05 considered significant.
Relative cell growth inhibition values for differing levels of each drug alone and in combination were input into SynergyFinder to generate dose-response curves for each drug alone and to produce a dose-response matrix. The dose-response matrix data then were used in generating a two-dimension heatmap and three-dimension volcano plot to visualize the distribution of areas of differing degrees of synergism and to calculate average and maximum synergy scores in selected human cancer cell lines. The expected drug combination responses were calculated using both the Highest Single Agent (HSA) model and the Zero interaction potency (ZIP) model.

[1] = system: Mammary gland HCC38 cells; test: CyQUANT-NF proliferation assay, 48-h drug treatment; format: cell-based; conditions: for Relative cell inhibition: 99% confluent cells, 48 h
[2] = Solubility, storage and stability of 4SP65 and 1LP65; format: physicochemical
Description: prepared for use and that was not altered by the solvent used, heating up to 37 °C for up to 3 days, and shaking or rocking for up to 3 days at RT or 4°C. For experiment, an aliquot of drug was first mixed in medium, the solvent was removed and saved, and gel pieces were recovered, dried on a vacuum pump, […]
The difference in the starting weight of drug placed into solvent minus the weight of the residue after drying on a vacuum pump was considered to represent the amount of drug that went into solution. The amount of drug that was dissolved at a given time ranged from 40 to 61%, averaging 50.7 ± 8.1% (SD). The weight of the 4SP65 in solution was then used for diluting the drug to concentrations of 200 or 400 µM in supplemented RPMI or DMEM/F12 medium for routine treatment of cells. The dried residue was not used in the in vitro drug efficacy studies. The formation of a gel in the aqueous solvents tested was unexpected since […]
few free thiols in polymer arms of the PEG scaffold for cross-linking reactions to occur. However, unintended topical entanglements between polymer chains of multi-arm PEG-thiol molecules without disulfide formation have been reported (Tang and Bradley 2014 24860800). Aliquots of 4SP65 dissolved in FBS enriched medium has remained stable for >6 months while remnants of the original viscous polymer have maintained stability without any apparent loss of activity when stored for 60 […]
However, the bulk of the product was dissolved at 40 mM in DMSO and stored in aliquots at −80°C for future use once by further dilution in DMSO and then final dilution in medium for treatment of normal human epithelium and human cancer cell lines at working solutions of 4 mM or 400 µM drug. 1LP65 has maintained stability for six months in frozen aliquots but should be stable in DMSO at −80°C for two to three years based upon recommended storage conditions for cystamine dihydrochloride (Selleck Chemical product information), an analogous 225 Da compound with a disulfide bond and amine groups like 1LP65. […]

NCI-H1437 NSCLC cells = system: NCI-H1437 NSCLC cells
Description: (§1) The percentage of growth inhibition was calculated as follows: […]

[3] = system: Strain-2 and Strain-3 NHMECs; format: cell-based; conditions: for cell growth, % of control cell values: 500 µM
Excerpt: Normal human mammary epithelial cell (NHMEC) strains used to assess potential cytotoxicity of 4SP65 and 1LP65 were established from reduction mammoplasty tissue from a healthy donor (M99005 or ‘Strain-1’) ([53]) or purchased from ATCC (Manassas, VA, USA; batch#70043304 or ‘Strain-2’) or Cell Applications (San Diego, CA, USA; lot#1669 or ‘Strain-3’). Human cancer cell lines including HCC38, MDA-MB-231, A549, National Cancer Institute (NCI)-H460, NCI-H1437, NCI-H1975, DU145, LNCaP, PC3, PANC1, SKOV3, and HL60, which were free of Mycoplasma, were purchased from ATCC. HMESO1, PPMMill, and TOV21G cells, obtained from Dr. Brian Cunniff, were verified to be Mycoplasma negative using the LookOut® Mycoplasma PCR Detection Kit (Sigma-Aldrich) and to match previously annotated DNA fingerprints by the Vermont Integrative Genomics Resource DNA Analysis Facility.
To assess the effects of 4SP65 or 1LP65 on the growth of normal epithelium, experiments were performed using NHMEC strains from differing donors ([53]). Strain-1 NHMECs were plated at 5,000 cells/well in 24-well plates and allowed to reach 50% confluence before treatment with 0-150 µM 4SP65 for 48 h. Cell viability was determined using a hemocytometer and trypan blue exclusion assay. Two other NHMEC strains, exposed to 0-150 µM 4SP65 or 0-500 µM 1LP65 for 48 h, were handled in the same fashion except that viability of cells in 96-well plates was determined using CyQUANT dye. Due to the short life span of these NHMECs, standard curves were not generated and fluorescence readings were used as a surrogate marker of cell number ([54]).

[4] = system: Mammary gland MDA-MB-231 cells; test: CyQUANT-NF proliferation assay, 48-h drug treatment; format: cell-based
Description: Since the BRG prodrugs are composed of WR1065 as one of the major constituents, assays were conducted to determine if factors reported to modulate the activity of amino acid and polyamine plasma membrane transport systems impacted the efficacy of 4SP65 or 1LP65 in selected cancer cell lines. HL60 cells were exposed to 4SP65 with up to 0.5 mM NaCl, MBA-MD-231 cells were tested in the presence and absence of medium supplemented with estradiol plus insulin (in the BulletKit™ for growth supplements for NHMECs), HCC38 cells were exposed to 4SP65 with and without 10 µM insulin added to the growth medium, and multiple cells lines were pretreated for 24 h with 1 mM DFMO prior to starting exposures to 4SP65.
as §1

[5] = 48-h treatment, amifostine ND = not definable up to 500 µM
[6] = drug alone, 48 h, 4SP65/cisplatin study
[7] = drug alone, 48 h, 4SP65/cisplatin study, ND = not definable, highest concentration in parentheses
[8] = aqueous solvents/medium, remainder formed a gel
[9] = Strain-2 NHMECs, 48 h, read-out: IC50
[10] = Strain-3 NHMECs, 48 h, read-out: IC50
[11] = read-out: LC50, 48-h treatment, amifostine ND = not definable up to 500 µM
[12] = 48-h treatment, amifostine ND = not definable up to 500 µM, read-out: LC50 (the source's name)

Compound: 4-star-PEG-S-S-WR1065 [4SP65]
- GI50 (NCI-H460 NSCLC cells; [5]): 9.4 ± 1.5 µM
- IC50 (NCI-H460 NSCLC cells; [5]): 10.7 ± 1.3 µM
- LC99 (NCI-H460 NSCLC cells; [5]): 17.7 ± 0.8 µM
- TGI (NCI-H460 NSCLC cells; [5]): 14.1 ± 1.5 µM and 14.1 µM
- Dose reduction value 1LP65 ÷ 4SP65 (NCI-H460 NSCLC cells; at GI50): 8.3 fold
- Dose reduction value 1LP65 ÷ 4SP65 (NCI-H460 NSCLC cells; at IC50): 8.4 fold
- Dose reduction value 1LP65 ÷ 4SP65 (NCI-H460 NSCLC cells; at LC50): 9.5 fold
- Dose reduction value 1LP65 ÷ 4SP65 (NCI-H460 NSCLC cells; at LC99): 10 fold
- Dose reduction value 1LP65 ÷ 4SP65 (NCI-H460 NSCLC cells; at TGI): 8.8 fold
- Fold increase in efficacy (NCI-H460 NSCLC cells; at GI50): 36 fold
- Fold increase in efficacy (NCI-H460 NSCLC cells; at IC50): 20** fold
- Fold increase in efficacy (NCI-H460 NSCLC cells; at LC50, GoE = gain of effect): 5.3^c fold
- Fold increase in efficacy (NCI-H460 NSCLC cells; at LC99, GoE = gain of effect): 4.3^c fold
- Fold increase in efficacy (NCI-H460 NSCLC cells; at TGI, GoE = gain of effect): 7.4^c fold
- GI50 (NCI-H460 NSCLC cells; [6]): 12.3 ± 1.1 µM
- IC50 (NCI-H460 NSCLC cells; [6]): 13.3 ± 1 µM
- LC99 (NCI-H460 NSCLC cells; [7]): 18.2 ± 0.4 µM
- TGI (NCI-H460 NSCLC cells; [7]): 16.9 ± 0.6 µM
- CC50 [1]: 6.8 ± 0.9 µM
- GI50 [1, 5]: 1.3 ± 0.4 µM
- IC50 [1, 5]: 4.1 ± 0.2 µM
- LC99 [1, 5]: 11.9 ± 1.6 µM
- TGI [1, 5]: 3.7 ± 0.3 µM
- Relative cell inhibition ([1]; 10 µM 4SP65 alone): 3.4 ± 10.9%
- Relative cell inhibition ([1]; 10 µM 4SP65 with 10 µM insulin): 42 ± 6.5%
- selectivity index ([1]; IC50 in NHMECs ÷ IC50 in HCC38, average): > 31
- Dose reduction value 1LP65 ÷ 4SP65 ([1]; at GI50): 28 fold
- Dose reduction value AMF ÷ 4SP65 ([1]; at GI50): 60 fold
- Dose reduction value 1LP65 ÷ 4SP65 ([1]; at IC50): 12 fold
- Dose reduction value AMF ÷ 4SP65 ([1]; at IC50): 67 fold
- Dose reduction value 1LP65 ÷ 4SP65 ([1]; at LC50): 8.8 fold
- Dose reduction value 1LP65 ÷ 4SP65 ([1]; at LC99): 7.1 fold
- Dose reduction value 1LP65 ÷ 4SP65 ([1]; at TGI): 13 fold
- Dose reduction value AMF ÷ 4SP65 ([1]; at TGI): 69 fold
- fold increase in drug efficacy with insulin ([1]; growth-arrested cells): 12.4 fold
- highest level testable based upon maximum solubility in aqueous medium [2]: 150 µM
- storage time with maintained stability without apparent loss of activity [2]: 60 months
- time remained stable ([2]; aliquots dissolved in FBS enriched medium): > 6 months
- amount of drug dissolved at a given time, average (SD) [2, 8]: 50.7 ± 8.1%
- amount of drug dissolved at a given time, range [2, 8]: 40 to 61%
- CC50 (NCI-H1437 NSCLC cells): 19.6 ± 0.7 µM
- GI50 (NCI-H1437 NSCLC cells; [5]): 10.6 ± 2 µM
- IC50 (NCI-H1437 NSCLC cells; [5]): 12.5 ± 2.6 µM
- LC99 (NCI-H1437 NSCLC cells; [5]): 21.1 ± 0.2 µM
- TGI (NCI-H1437 NSCLC cells; [5]): 16.3 ± 1.9 µM
- Dose reduction value 1LP65 ÷ 4SP65 (NCI-H1437 NSCLC cells; at GI50): 6.5 fold
- Dose reduction value 1LP65 ÷ 4SP65 (NCI-H1437 NSCLC cells; at IC50): 6.0 fold
- Dose reduction value 1LP65 ÷ 4SP65 (NCI-H1437 NSCLC cells; at LC50): 8.0 fold
- Dose reduction value 1LP65 ÷ 4SP65 (NCI-H1437 NSCLC cells; at LC99): 11 fold
- Dose reduction value 1LP65 ÷ 4SP65 (NCI-H1437 NSCLC cells; at TGI): 6.3 fold
- IC50 [3, 9]: > 150 µM
- growth enhancement ([3]; Strain-2 and Strain-3 cells, 3 µM, 48 h): 162% ± 7%
- growth relative to control cells ([3]; Strain-2 and Strain-3 cells, 9 µM, 48 h): 78% ± 12%
- growth relative to control cells ([3]; Strain-2 and Strain-3 cells, 30 µM, 48 h): 52% ± 8%
- growth relative to control cells ([3]; Strain-2 and Strain-3 cells, 90 µM, 48 h): 21% ± 4%
- growth relative to control cells ([3]; Strain-2 and Strain-3 cells, 150 µM, 48 h): 8.7% ± 2%
- IC50 [3, 10]: 76 ± 14 µM
- CC50 [4]: 9.2 ± 1.2 µM
- IC50 [4, 5]: 4.7 ± 0.9 µM
- LC99 [4, 5]: 11.0 ± 1.8 µM
- TGI [4, 5]: 6.6 ± 1.0 µM and 6.6 µM
- selectivity index ([4]; IC50 in NHMECs ÷ IC50 in MDA-MB-231, average): > 26
- Dose reduction value 1LP65 ÷ 4SP65 ([4]; at GI50): 26 fold
- Dose reduction value 1LP65 ÷ 4SP65 ([4]; at IC50): 15 fold
- Dose reduction value 1LP65 ÷ 4SP65 ([4]; at LC50): 15 fold
- Dose reduction value 1LP65 ÷ 4SP65 ([4]; at LC99): 14 fold
- Dose reduction value 1LP65 ÷ 4SP65 ([4]; at TGI): 21 fold
- fold increase in drug efficacy at the TGI level with hormones ([4]; insulin plus estradiol): ~4 fold
- TGI ([4]; with insulin plus estradiol, 48 h): 1.2 µM
- TGI ([4]; without hormones, 48 h (pilot experiment)): 4.6 µM

Compound: COCCOCCOCCOCCOCCOCCSSCCNCCCN.O=C(O)C(F)(F)F.O=C(O)C(F)(F)F [1LP65, m-PEG6-S-S-WR1065]
- GI50 (NCI-H460 NSCLC cells; [5]): 77.7 ± 15 µM
- IC50 (NCI-H460 NSCLC cells; [5]): 90.1 ± 16.6 µM
- LC99 (NCI-H460 NSCLC cells; [5]): 182 ± 6.7 µM
- TGI (NCI-H460 NSCLC cells; [5]): 124 ± 13.3 µM and 124 µM
- CC50 (NCI-H460 NSCLC cells; [11]): 155 ± 5.1 µM
- GI50 [1, 5]: 36.5 ± 2.3 µM
- IC50 [1, 5]: 47.3 ± 2.2 µM
- LC99 [1, 5]: 83.9 ± 2.9 µM
- TGI [1, 5]: 46.9 ± 2.5 µM
- CC50 [1, 12]: 59.9 ± 2.9 µM
- Dose reduction value AMF ÷ 1LP65 ([1]; at GI50): 2.1 fold
- Dose reduction value AMF ÷ 1LP65 ([1]; at IC50): 5.8 fold
- Dose reduction value AMF ÷ 1LP65 ([1]; at TGI): 5.4 fold
- solubility [2]: soluble 100% DMSO or aqueous solution
- time of maintained stability ([2]; frozen aliquots in DMSO at −80°C): six
- GI50 (NCI-H1437 NSCLC cells; [5]): 66.2 ± 4.2 µM
- IC50 (NCI-H1437 NSCLC cells; [5]): 74.8 ± 2.1 µM
- LC99 (NCI-H1437 NSCLC cells; [5]): 234 ± 16 µM
- TGI (NCI-H1437 NSCLC cells; [5]): 109 ± 17 µM
- CC50 (NCI-H1437 NSCLC cells; [11]): 157 ± 14 µM
- IC50 [3, 9]: > 500 µM
- IC50 ([3]; Strain-2 and Strain-3, read-out: average IC50 for the two normal cell strains): > 355 µM
- cell growth, % of control cell values ([3]; Strain-2 cells, 48 h): 19.5%
- IC50 [3, 10]: 210 µM
- cell growth, % of control cell values ([3]; Strain-3 cells, 48 h): 12.5%
- GI50 [4, 5]: 41.8 ± 5.9 µM
- IC50 [4, 5]: 52.4 ± 4.8 µM
- LC99 [4, 5]: 135 ± 6.6 µM
- TGI [4, 5]: 76.4 ± 9.2 µM and 76.4 µM
- CC50 [4, 12]: 110 ± 4.7 µM
- Dose reduction value AMF ÷ 1LP65 ([4]; at GI50): 5.8 fold
